Experimental data published in patent publication US20250034216A1, “STEREOSELECTIVE COVALENT LIGANDS FOR ONCOGENIC AND IMMUNOLOGICAL PROTEINS” (The Scripps Research Institute, priority 2021, published 2025).

What was measured:
Assay in all cases: IA-DTB cysteine engagement
Format in all cases: binding
Conditions in all cases: 22Rv1 cells, 20 μM probe, 1 h, relative to DMSO
ABCB8_C462 = molecular target: T1, ABCB8_C462 (Homo sapiens, UniProt Q9NUT2)
T1 construct: endogenous in cells; host or cells: 22Rv1
T1 sequence (Q9NUT2 26-735): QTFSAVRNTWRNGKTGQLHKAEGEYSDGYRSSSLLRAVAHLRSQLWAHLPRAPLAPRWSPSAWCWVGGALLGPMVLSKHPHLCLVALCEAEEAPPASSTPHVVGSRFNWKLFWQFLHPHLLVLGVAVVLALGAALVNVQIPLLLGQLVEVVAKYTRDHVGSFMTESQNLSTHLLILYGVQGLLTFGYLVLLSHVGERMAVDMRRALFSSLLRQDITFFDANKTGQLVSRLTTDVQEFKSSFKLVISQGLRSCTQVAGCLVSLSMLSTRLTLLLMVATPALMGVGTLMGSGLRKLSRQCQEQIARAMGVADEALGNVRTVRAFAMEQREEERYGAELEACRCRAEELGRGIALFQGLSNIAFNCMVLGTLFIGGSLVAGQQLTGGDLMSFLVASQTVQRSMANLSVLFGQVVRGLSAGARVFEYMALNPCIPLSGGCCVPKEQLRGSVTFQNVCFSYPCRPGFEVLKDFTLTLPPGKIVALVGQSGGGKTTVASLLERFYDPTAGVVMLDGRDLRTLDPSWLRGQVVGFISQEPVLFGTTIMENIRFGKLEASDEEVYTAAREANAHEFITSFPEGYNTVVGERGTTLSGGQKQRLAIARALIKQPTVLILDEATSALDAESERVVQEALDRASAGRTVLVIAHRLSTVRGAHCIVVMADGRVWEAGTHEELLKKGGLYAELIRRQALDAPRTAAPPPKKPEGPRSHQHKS
Summary of the method: (§1)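 Cells were treated in situ with electrophilic probes, then lysed, and the lysates (2 mg/mL protein) were labeled with IA-DTB for 1 h at ambient temperature. After reduction, alkylation and trypsin digestion, labeled peptides were streptavidin-enriched, TMT-labeled and fractionated. Engagement ratios are probe vs DMSO reporter intensities, averaged across replicates.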

SPATA2_C41 = molecular target: T2, SPATA2_C41 (Homo sapiens, UniProt Q9UM82)
T2 construct: endogenous in cells; host or cells: 22Rv1
T2 sequence (Q9UM82 1-520): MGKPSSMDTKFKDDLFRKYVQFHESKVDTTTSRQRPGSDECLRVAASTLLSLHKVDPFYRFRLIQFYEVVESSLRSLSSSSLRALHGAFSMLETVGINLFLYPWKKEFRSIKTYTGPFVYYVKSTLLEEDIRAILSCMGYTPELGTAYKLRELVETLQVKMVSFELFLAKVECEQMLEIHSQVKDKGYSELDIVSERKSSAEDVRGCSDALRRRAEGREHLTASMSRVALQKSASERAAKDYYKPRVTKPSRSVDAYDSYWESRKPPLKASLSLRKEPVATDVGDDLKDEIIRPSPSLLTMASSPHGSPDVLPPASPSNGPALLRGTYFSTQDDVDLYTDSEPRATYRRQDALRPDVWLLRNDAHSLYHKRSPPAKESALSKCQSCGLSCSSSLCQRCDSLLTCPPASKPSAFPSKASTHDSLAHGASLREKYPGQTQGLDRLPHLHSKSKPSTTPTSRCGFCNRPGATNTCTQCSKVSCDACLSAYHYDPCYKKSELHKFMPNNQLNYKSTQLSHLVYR
Summary of the method: as §1

ABCA2_C2385 = molecular target: T3, ABCA2_C2385 (Homo sapiens, UniProt Q9BZC7)
T3 construct: endogenous in cells; host or cells: 22Rv1
T3 sequence (Q9BZC7 whole entry): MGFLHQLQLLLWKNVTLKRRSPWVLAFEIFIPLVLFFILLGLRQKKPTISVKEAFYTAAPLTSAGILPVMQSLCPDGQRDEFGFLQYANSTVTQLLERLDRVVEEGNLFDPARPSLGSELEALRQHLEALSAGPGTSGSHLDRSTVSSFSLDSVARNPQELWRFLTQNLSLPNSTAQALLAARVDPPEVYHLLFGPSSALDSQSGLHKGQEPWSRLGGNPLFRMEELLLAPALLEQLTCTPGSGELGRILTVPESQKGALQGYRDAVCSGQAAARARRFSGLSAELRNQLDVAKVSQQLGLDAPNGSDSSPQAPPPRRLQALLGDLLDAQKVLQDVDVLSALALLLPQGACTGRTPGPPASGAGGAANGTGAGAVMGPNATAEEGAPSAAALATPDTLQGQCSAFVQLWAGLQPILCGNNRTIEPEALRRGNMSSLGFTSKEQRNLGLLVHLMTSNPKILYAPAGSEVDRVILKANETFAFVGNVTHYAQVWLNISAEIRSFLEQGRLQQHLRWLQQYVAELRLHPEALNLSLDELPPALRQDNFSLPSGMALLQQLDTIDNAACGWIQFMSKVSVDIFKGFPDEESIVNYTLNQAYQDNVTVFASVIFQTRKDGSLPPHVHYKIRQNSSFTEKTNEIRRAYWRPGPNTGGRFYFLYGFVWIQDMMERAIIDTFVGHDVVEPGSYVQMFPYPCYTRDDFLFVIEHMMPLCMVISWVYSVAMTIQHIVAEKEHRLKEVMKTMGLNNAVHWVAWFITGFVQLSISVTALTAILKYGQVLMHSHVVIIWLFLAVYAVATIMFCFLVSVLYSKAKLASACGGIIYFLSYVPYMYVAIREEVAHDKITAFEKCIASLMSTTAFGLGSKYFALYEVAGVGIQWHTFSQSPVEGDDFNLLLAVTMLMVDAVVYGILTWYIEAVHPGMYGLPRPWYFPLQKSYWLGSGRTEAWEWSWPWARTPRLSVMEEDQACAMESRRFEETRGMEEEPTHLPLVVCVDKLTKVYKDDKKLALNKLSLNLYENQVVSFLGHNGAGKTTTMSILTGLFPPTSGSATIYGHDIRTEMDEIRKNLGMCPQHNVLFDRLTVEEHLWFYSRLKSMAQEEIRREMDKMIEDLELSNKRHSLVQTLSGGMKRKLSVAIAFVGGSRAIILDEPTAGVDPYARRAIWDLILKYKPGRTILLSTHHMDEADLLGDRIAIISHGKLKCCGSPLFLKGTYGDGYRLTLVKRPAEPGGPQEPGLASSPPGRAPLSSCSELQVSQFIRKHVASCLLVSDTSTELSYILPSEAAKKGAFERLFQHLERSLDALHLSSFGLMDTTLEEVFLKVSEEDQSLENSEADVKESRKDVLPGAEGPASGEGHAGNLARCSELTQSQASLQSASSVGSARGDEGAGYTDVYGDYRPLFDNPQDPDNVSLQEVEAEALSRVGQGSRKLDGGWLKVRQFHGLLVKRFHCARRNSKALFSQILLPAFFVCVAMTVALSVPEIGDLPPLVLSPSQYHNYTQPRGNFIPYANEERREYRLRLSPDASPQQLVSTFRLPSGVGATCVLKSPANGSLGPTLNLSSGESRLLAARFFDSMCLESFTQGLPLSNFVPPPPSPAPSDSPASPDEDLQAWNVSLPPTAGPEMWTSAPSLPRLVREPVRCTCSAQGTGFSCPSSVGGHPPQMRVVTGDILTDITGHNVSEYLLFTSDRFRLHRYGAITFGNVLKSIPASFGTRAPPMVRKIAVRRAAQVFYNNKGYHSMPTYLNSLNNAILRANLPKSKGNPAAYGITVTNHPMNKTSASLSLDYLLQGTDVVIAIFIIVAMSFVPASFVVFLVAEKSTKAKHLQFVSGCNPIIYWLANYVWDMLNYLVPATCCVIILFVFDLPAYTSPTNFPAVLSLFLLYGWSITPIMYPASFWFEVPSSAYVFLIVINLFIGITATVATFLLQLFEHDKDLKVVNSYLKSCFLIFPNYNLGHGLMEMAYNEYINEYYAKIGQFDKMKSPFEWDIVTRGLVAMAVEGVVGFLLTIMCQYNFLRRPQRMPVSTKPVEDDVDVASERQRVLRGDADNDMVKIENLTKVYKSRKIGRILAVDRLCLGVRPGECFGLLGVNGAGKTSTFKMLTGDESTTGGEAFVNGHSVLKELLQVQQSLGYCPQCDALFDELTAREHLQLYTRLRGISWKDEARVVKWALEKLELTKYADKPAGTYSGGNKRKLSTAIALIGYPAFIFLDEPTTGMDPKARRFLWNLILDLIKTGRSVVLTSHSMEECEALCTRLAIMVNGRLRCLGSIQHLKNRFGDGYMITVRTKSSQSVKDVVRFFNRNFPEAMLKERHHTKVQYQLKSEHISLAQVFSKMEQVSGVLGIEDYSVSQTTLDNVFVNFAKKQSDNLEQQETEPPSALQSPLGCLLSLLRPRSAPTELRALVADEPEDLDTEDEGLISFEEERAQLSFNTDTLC
Summary of the method: as §1

CENPC_C291 = molecular target: T4, CENPC_C291 (Homo sapiens, UniProt Q03188)
T4 construct: endogenous in cells; host or cells: 22Rv1
T4 sequence (Q03188 whole entry): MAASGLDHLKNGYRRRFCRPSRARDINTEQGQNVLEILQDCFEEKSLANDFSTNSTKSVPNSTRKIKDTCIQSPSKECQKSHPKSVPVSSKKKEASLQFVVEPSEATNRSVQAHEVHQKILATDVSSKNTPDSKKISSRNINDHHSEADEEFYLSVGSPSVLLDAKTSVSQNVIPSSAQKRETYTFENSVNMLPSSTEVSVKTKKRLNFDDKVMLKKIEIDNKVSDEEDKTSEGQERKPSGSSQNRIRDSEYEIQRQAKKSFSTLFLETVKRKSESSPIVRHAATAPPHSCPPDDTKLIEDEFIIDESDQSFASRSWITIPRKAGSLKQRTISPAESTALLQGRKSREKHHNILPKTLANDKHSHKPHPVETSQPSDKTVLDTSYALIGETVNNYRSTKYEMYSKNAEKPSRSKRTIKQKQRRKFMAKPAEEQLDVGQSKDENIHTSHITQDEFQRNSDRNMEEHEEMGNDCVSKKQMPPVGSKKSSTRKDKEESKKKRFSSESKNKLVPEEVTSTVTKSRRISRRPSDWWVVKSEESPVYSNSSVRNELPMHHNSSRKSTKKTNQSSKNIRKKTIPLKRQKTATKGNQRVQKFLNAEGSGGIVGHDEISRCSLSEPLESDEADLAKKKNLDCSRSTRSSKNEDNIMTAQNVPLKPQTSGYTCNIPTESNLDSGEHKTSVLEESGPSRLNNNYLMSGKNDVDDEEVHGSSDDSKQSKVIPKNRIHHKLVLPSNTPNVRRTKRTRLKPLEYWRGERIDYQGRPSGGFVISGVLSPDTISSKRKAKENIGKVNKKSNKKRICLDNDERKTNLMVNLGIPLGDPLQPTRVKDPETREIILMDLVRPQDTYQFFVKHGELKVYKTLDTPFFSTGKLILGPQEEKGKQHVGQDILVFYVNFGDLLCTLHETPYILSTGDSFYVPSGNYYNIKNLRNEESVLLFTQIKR
Summary of the method: as §1

CBX1_C60 = molecular target: T5, CBX1_C60 (Homo sapiens, UniProt P83916)
T5 construct: endogenous in cells; host or cells: 22Rv1
T5 sequence (P83916 whole entry): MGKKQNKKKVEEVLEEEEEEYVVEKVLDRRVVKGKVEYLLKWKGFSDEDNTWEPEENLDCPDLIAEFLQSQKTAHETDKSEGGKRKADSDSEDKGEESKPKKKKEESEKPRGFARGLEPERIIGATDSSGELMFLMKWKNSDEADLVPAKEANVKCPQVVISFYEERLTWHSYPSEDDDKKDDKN
Summary of the method: as §1

| % engagement ABCB8_C462 (ABCB8_C462) [%] | % engagement SPATA2_C41 (SPATA2_C41) [%] | % engagement ABCA2_C2385 (ABCA2_C2385) [%] | % engagement CENPC_C291 (CENPC_C291) [%] | % engagement CBX1_C60 (CBX1_C60) [%] | SMILES |
| --- | --- | --- | --- | --- | --- |
| 73.25 | 29.5 | 72.5 | 82.5 | 75 | C=CC(=O)N1C[C@H](c2ccc(Br)cc2)[C@H]1C(=O)Nc1cccc2cccnc12 [MY-3B, (2S,3S)-1-acryloyl-3-(4-bromophenyl)-N-(quinolin-8-yl)azetidine-2-carboxamide] |
| 39 | 91.75 | 78 | 7 | −14.5 | C=CC(=O)N1C[C@H](c2ccc(Br)cc2)[C@@H]1C(=O)Nc1cccc2cccnc12 [MY-1B, (2R,3S)-1-acryloyl-3-(4-bromophenyl)-N-(quinolin-8-yl)azetidine-2-carboxamide] |
| 19.5 | 24.5 | 42.5 | 28 | 14.5 | C=CC(=O)N1C[C@H](c2ccc(Br)cc2)[C@H]1C(=O)Nc1cccc2cccnc12 [MY-3A, (2S,3S)-1-acryloyl-3-(4-bromophenyl)-N-(quinolin-8-yl)azetidine-2-carboxamide] |
| 28.5 | 58 | 33 | −1.5 | −11.5 | C=CC(=O)N1C[C@@H](c2ccc(Br)cc2)[C@H]1C(=O)Nc1cccc2cccnc12 [MY-1A, (2S,3R)-1-acryloyl-3-(4-bromophenyl)-N-(quinolin-8-yl)azetidine-2-carboxamide] |
